Assay results: US20230065368A1, “INHIBITING UBIQUITIN SPECIFIC PEPTIDASE 9X” (FORMA Therapeutics, Inc., priority 2018, published 2023)

Target: USP9X (Homo sapiens, UniProt Q93008)
Assay: Biochemical Assay for USP9X Inhibition (Ub-Rh110 fluorescence)
Conditions: Biochemical Assay of Example 1, 25 nM Ub-Rh110, 30 min preincubation, Table 23 additional compounds
Procedure: Biochemical Assay for USP9X Inhibition
Concentration and incubation times were optimized for the maximal signal-to-background while maintaining initial velocity conditions at a fixed substrate concentration (<<Km). […] To assay plates (pre-stamped with compound) was added 3 μL 2× Enzyme. The enzyme was preincubated for 30 minutes and then treated with 3 μL of 2× Substrate. […] The slope (best fit linear regression) of the five reads was used to normalize for inhibition. For all assays, data are reported as percent inhibition compared with control wells based on the following equation: […], wherein FLU is measured Fluorescence, AveLow is average Fluorescence of no enzyme control (n=64), and AveHigh is average Fluorescence of DMSO control (n=64). IC50 values are determined by curve fitting of the standard 4 parameter logistic fitting algorithm included in the Activity Base software package: IDBS XE Designer Model205. Data are fitted using the Levenburg Marquardt algorithm.

USP9X, sequence (Q93008 whole entry, species assumed): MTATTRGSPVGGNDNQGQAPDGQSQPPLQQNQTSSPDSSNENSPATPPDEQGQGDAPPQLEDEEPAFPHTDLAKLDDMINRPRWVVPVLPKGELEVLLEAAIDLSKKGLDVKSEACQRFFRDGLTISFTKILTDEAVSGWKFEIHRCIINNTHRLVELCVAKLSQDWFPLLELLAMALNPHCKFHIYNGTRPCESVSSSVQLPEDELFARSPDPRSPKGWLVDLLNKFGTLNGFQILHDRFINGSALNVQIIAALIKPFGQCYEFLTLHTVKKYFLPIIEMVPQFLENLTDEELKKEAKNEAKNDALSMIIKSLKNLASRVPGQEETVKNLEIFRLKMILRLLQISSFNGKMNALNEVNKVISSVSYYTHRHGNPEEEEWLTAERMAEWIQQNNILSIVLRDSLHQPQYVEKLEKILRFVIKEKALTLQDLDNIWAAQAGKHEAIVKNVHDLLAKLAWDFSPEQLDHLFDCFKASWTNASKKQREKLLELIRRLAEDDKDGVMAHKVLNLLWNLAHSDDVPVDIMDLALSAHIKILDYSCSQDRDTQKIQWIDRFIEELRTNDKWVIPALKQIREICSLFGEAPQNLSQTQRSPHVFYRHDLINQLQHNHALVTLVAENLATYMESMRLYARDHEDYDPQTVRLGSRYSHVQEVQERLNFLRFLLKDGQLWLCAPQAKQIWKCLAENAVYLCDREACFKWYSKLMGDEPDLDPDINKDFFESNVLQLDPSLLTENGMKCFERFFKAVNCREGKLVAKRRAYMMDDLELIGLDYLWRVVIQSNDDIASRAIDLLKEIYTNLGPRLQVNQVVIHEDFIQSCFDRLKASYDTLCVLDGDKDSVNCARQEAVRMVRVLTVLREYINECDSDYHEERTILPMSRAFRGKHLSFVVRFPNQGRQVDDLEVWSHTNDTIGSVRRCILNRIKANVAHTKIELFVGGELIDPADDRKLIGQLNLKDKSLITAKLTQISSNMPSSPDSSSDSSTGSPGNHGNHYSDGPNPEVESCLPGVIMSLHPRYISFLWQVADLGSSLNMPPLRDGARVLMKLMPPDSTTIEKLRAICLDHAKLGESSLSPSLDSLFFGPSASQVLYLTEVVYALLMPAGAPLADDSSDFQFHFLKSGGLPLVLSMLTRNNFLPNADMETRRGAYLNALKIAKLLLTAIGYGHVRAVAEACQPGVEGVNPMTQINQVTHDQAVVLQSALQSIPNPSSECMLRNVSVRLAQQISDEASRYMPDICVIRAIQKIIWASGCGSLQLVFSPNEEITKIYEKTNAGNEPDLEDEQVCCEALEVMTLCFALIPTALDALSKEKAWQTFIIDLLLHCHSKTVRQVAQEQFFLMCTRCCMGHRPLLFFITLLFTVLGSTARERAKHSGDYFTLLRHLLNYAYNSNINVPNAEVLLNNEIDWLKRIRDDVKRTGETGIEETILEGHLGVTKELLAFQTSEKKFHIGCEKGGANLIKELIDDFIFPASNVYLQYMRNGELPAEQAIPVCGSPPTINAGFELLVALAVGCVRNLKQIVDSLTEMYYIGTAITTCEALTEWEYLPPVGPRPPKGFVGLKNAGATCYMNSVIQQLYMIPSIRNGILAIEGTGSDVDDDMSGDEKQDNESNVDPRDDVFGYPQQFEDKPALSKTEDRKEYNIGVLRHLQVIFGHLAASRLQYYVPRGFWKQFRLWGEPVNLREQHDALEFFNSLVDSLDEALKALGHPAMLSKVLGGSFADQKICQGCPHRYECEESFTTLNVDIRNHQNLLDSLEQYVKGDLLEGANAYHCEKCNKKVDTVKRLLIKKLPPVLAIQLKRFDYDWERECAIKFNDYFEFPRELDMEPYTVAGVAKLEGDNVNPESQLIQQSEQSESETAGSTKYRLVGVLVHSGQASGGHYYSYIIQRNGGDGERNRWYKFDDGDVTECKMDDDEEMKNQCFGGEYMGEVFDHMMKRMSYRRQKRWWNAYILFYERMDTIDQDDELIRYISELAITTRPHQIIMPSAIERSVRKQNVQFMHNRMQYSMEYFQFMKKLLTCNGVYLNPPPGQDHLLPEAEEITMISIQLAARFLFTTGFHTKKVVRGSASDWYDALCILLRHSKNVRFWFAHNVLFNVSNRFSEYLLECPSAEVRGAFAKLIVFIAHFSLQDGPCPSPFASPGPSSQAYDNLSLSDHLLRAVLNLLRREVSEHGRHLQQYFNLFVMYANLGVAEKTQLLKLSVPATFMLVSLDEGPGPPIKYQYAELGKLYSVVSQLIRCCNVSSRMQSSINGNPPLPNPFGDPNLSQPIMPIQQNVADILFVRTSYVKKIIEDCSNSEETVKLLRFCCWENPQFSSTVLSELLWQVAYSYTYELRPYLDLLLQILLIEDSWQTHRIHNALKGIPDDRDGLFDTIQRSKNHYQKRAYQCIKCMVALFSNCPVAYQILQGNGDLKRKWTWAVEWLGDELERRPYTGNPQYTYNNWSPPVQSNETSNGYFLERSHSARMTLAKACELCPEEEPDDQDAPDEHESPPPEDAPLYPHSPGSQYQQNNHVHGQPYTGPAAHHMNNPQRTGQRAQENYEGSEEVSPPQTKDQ

Compound: O=C([C@@H](CO)c1ccccc1)N1CC2=C(C1)CN(S(=O)(=O)c1cnc3c(c1)OCCO3)C2 [Example C-7]
- IC50: 0.2 to 2 µM

Compound: O=C([C@H](CO)c1ccccc1)N1CC2=C(C1)CN(S(=O)(=O)c1cnc3c(c1)OCCO3)C2 [Example C-8]
- IC50: 2 to 25 µM
